For one experiment, the target named is Human RET kinase (Homo sapiens (Human), UniProt P07949). Put plainly: RET kinase enzymatic assay. The following applies: GST-RET cytoplasmic domain, HTRF readout. The experiment is classed as biochemical. The method, then:
RET Kinase Enzymatic Assay
Human RET kinase cytoplasmic domain (amino acids 658-1114 of accession number NP_000314.1) was expressed as an N-terminal GST-fusion protein using a baculovirus expression system. GST-RET was purified using glutathione sepharose chromatography. The RET kinase enzymatic assay was performed in a total volume of 10 uL with increasing concentrations of RET kinase inhibitor as a singlet in a 384 well format as follows: RET inhibitor compound plates are prepared by adding 100 nL of RET inhibitor at different concentrations to a 384-well plate. 5 μL/well of a 2× enzyme mix (50 mM HEPES (4-(2-hydroxyethyl)-1-piperazineethanesulfonic acid); 1 mM CHAPS (3-[(3-cholamidopropyl)dimethylammonio]-1-propane sulfonate); 0.1 mg/mL BSA (bovine serum albumin); 1 mM DTT (dithiothreitol); 0.2 nM RET kinase) was added to the 384-well plate and incubated for 30 minutes at 23° C. […] 10 μL/well of 2× stop/detection mix (50 mM HEPES; 0.1% BSA; 800 mM Potassium Fluoride; 50 mM EDTA (Ethylenediaminetetraacetic acid); 200× dilution of Europium Cryptate labeled anti-phosphotyrosine antibody; 62.5 nM Streptavidin-XL665) incubated for 1 hour at 23° C. and read on a Homogenous Time-Resolved Fluorescence reader. […]

Another experiment has as its system TT cells. Put plainly: RET kinase cell-based proliferation assay (TT cells, CellTiter-Glo). The following applies: Homo sapiens, 192 h, eight days. The method, then:
RET Kinase Cell-Based Proliferation Assay
The potency of the compounds of the invention were tested for its ability to inhibit cell proliferation and cell viability. TT cells (ATCC CRL-1803), a medullary thyroid cancer cell line with constitutively activated RET kinase, were maintained in 150 cm^2 dishes in F12 Kaighn's medium, 10% fetal bovine serum, 1× Glutamax, 1× non-essential amino acids, 1× Pen/Strep antibiotics at 37° C. in 5% carbon dioxide. 6.0E3 TT cells/well in 50 μL of media were added to a 96-well cell culture plate and allowed to adhere overnight. 50 μL of serially diluted RET inhibitor compounds were added to 96-well plate containing cultured TT cells and incubated at 37° C. in 5% carbon dioxide for eight days. 50 μL of CellTiter-Glo (Promega #G-7573) was added, contents mixed for 1 minute on shaker followed by 10 minutes in the dark at 23° C. and the luminescence read by EnVision (PerkinElmer). IC50s were fitted using GraphPad Prism to a sigmoidal dose response.

Where only a bound is given, the exact number is not on record here.

These results are taken from patent publication US10111866B2, “Compounds as rearranged during transfection (RET) inhibitors” (GLAXOSMITHKLINE INTELLECTUAL PROPERTY DEVELOPMENT LIMITED, priority 2015, dated 2018).

Human RET kinase, sequence (P07949 658-1114): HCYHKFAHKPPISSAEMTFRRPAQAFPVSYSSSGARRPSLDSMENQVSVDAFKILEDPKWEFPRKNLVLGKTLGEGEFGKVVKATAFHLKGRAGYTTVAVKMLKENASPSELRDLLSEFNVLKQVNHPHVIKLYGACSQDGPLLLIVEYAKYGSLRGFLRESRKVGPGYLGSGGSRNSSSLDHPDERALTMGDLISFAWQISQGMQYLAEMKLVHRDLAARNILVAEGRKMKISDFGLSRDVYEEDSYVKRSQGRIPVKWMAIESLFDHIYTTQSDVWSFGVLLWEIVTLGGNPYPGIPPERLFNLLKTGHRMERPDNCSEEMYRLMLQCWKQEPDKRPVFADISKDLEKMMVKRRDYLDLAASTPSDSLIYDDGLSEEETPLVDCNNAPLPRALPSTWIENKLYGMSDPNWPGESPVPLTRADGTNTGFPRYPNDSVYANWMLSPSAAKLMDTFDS

Take `CCOc1cc(=O)[nH]cc1-c1ccc(CC(=O)Nc2cc(OCCN(C)C)cc(C(F)(F)F)c2)c(F)c1` [Example 2, N-(3-(2-(dimethylamino)ethoxy)-5-(trifluoromethyl)phenyl)-2-(4-(4-ethoxy-6-oxo-1,6-dihydropyridin-3-yl)-2-fluorophenyl)acetamide]: the figures for the IC50 against Human RET kinase and in the experiment on TT cells were at most 10 nM and 10 to 100 nM, respectively.

Consider `CCOc1cc(=O)[nH]cc1-c1ccc(CC(=O)Nc2cc(C(=O)NCCN(C)C)cc(C(F)(F)F)c2)c(F)c1` [Example 1, N-(2-(dimethylamino)ethyl)-3-(2-(4-(4-ethoxy-6-oxo-1,6-dihydropyridin-3-yl)-2-fluorophenyl)acetamido)-5-(trifluoromethyl)benzamide], for which the IC50 against Human RET kinase was at most 10 nM; in the experiment with TT cells, 10 to 100 nM.
